One test deals with PC-3. In words: Growth (cell count) of PC-3 under iberiotoxin/17β-estradiol treatment. The settings on record: two days. The format is cell-based, human. The protocol:
(§1) “K” represents a control; “I” represents treatment with 0.05 μM Iberiotoxin (Sigma); “E” represents treatment with 0.1 μM Estradiol; and “E+I” represents treatment with both 0.05 μM Iberiotoxin and 0.1 μM Estradiol. Cells were grown in OPTI-MEM (Invitrogen) +0.4% Albu-max (Invitrogen) for two days.
(§2) Cell culture: As standard, the cells were grown in OPTIMEM (Invitrogen) containing 10% FCS (Amimed) and 1% Pen/Strep (Amimed). For iberiotoxin/17β-estradiol treatment 25000 cells were seeded in OPTIMEM, 10% FCS into 6 well plates (Falcon). After one day incubation, the medium was changed to OPTIMEM 1%FCS, 1% Pen/Strep. After another day of incubation the experiment was started by changing the Medium to OPTIMEM 0.4% Albumax (Invitrogen), 1% Pen/Strep containing either only solvents, 50 nM iberiotoxin (Sigma), 100 nM 17β-estradiol (Sigma), or a combination of both. After two days of incubation, the cells were collected and counted.

The subject of another test is LNCaP. In words: Growth (cell count) of LNCaP under iberiotoxin/17β-estradiol treatment. The format is cell-based, human. The conditions noted are these: two days; for effect on estradiol-stimulated growth of LNCaP: 0.05 μM Iberiotoxin + 0.1 μM Estradiol. The protocol: as §1, §2
The test system of the next test is BPH-1. In words: Growth (cell count) of BPH-1 under iberiotoxin/17β-estradiol treatment. The format is cell-based, human. The settings on record: two days; for effect on estradiol-stimulated growth of BPH-1: 0.05 μM Iberiotoxin + 0.1 μM Estradiol. As to the method: as §1, §2
In test [1] the target is T1, potassium channels in membrane patches of PC-3 cells (Homo sapiens, UniProt Q12791).
T1 construct: endogenous in cells; host or cells: PC-3 prostate cancer cells (excised inside/out membrane patches)
The test can be described thus: Patch clamp, cell excised inside/out membrane patches of PC-3 cells. The conditions noted are these: preliminary. The format is cell-based. From the text: (§3) Numerous channels are active under high (1 mmol/l) intracellular Ca^2+ concentration in the membrane patch from PC-3 cells (A), thus single channel currents cannot be resolved. In contrast, little channel activity is present in the BPH-1 membrane patch (B).
(§4) Patch clamp recording was used to further assess the role of KCNMA1.
(§5) The membrane voltage of PC-3 cells is hyperpolarized when compared with that of BPH-1 cells. Moreover, paxillin inhibited potassium channels in cell excised inside/out membrane patches of PC-3 cells, but not in membrane patches of BPH-1 cells. In cell excised inside/out membrane patches of PC-3 cells we found pronounced activity of Ca^2+ activated K^+ channels, while little channel activity was found in excised membrane patches of BPH-1 cells (FIG. 10). Removal of Ca^2+ from the cytosolic side (0 mmol/l) abolished channel activity in both membrane patches of PC-3 and BPH-1 cells. Channel activity was recovered at cytosolic Ca^2+ concentrations of 1 μmol/l (0.001). These preliminary results fit very well to the expression data of KCNMA1 obtained so far.
(In general: The patch-clamp technique gives a direct electrical read-out from membranes.)

Test [2] deals with potassium channels in membrane patches of BPH-1 cells. In words: Patch clamp, cell excised inside/out membrane patches of BPH-1 cells. The format is cell-based, human. The settings on record: preliminary.
Text: as §3, §4, §5

The test system of test [3] is whole cell conductances of PC-3 cells. The test can be described thus: Whole cell patch clamp, PC-3 cells. The format is cell-based, human. The conditions noted are these: iberiotoxin 30 nM, preliminary.
The subject of test [4] is whole cell conductances of BPH-1 cells. The test can be described thus: Whole cell patch clamp, BPH-1 cells. The settings on record: iberiotoxin 30 nM, preliminary. The format is cell-based, human.
Setting [5] is: 100 nM 17β-estradiol, listed as 17β-estradiol.
Setting [6] is: 50 nM iberiotoxin, listed as Iberiotoxin.

“Also recorded” adds a separate entry of the source.

T1 sequence (Q12791 whole entry): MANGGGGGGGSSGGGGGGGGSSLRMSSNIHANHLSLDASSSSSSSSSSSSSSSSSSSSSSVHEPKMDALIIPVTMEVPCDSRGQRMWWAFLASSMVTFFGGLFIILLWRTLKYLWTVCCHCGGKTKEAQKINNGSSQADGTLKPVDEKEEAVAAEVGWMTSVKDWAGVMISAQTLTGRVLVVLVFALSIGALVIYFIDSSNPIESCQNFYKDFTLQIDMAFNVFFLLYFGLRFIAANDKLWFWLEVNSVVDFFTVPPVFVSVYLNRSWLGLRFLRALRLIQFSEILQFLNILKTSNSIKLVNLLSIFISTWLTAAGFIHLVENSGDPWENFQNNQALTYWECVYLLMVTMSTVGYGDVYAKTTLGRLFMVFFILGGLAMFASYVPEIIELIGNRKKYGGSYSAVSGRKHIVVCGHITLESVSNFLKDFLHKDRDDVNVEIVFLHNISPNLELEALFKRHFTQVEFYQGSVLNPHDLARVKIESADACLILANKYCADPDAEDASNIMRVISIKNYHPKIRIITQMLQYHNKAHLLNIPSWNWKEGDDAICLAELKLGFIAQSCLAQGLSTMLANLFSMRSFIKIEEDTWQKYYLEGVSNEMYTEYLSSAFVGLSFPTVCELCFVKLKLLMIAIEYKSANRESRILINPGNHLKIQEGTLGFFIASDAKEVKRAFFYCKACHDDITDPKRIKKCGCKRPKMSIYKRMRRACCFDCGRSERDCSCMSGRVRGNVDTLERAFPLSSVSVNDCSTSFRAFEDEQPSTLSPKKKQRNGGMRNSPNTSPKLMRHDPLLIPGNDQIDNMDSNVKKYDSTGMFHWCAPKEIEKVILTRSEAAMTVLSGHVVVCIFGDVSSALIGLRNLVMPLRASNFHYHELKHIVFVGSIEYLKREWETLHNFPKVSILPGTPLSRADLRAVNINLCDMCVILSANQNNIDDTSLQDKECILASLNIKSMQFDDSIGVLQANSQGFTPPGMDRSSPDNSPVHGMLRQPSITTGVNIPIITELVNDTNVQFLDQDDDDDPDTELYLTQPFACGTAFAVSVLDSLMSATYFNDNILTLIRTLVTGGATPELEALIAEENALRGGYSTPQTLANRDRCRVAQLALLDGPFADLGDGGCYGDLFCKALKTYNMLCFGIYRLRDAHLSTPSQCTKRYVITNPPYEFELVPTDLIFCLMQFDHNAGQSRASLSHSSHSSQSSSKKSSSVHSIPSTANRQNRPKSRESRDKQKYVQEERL

In the case of `C[C@]12CC[C@@H]3c4ccc(O)cc4CC[C@H]3[C@@H]1CC[C@@H]2O` [estradiol, 17β-estradiol], the “effect on growth of PC-3 (words)” value in the test on PC-3 (100 nM 17β-estradiol) is “not”; in the test on PC-3 (setting [5]) it was “no effect”. Besides, the “effect on growth of LNCaP (words)” value is given as “growth promoting effect” in the test on LNCaP (100 nM 17β-estradiol) and “increased proliferation; also recorded: increased its growth rate” in the test on LNCaP (setting [5]). Further, the entries for the “effect on growth of BPH-1 (words)” value in the test on BPH-1 (100 nM 17β-estradiol) and in the test on BPH-1 (setting [5]) were “growth promoting effect” and “increased proliferation”, respectively.
With `CC(C)(O)[C@H]1O[C@H]2CC[C@@]3(C)[C@@](O)(CC[C@H]4Cc5c([nH]c6ccccc56)[C@@]43C)C2=CC1=O` [paxillin], in test [1], the “inhibition of potassium channels in excised inside/out membrane patches of PC-3 cells” value was “inhibited”. In test [2], the “inhibition of potassium channels in excised inside/out membrane patches of BPH-1 cells” value is given as “not”.
Consider “iberiotoxin (QFTDVDCSVSKECWSVCKDLFGVDRGKCMGKKCRCYQ; Iberiotoxin; UniProt P24663 1-37, looked up)”, for which the “reduction of the growth rate of PC-3” value in the test on PC-3 (0.05 μM Iberiotoxin, OPTI-MEM + 0.4% Albu-max) is 10-15%. Moreover, the “effect on growth of PC-3 (words)” value with PC-3 (50 nM iberiotoxin) was “significantly decreased growth rate; also recorded: significant reduction of the growth rate; also recorded: significant growth inhibition; also recorded: could be reduced”. For the same molecule, the “effect on estradiol-stimulated growth of LNCaP” value in the test with LNCaP is on record as “completely reversed; also recorded: could be blocked”; in the test on LNCaP (listed as Iberiotoxin), “blocked the growth stimulus”. Besides, the “effect on growth of LNCaP (words)” value in the test with LNCaP (50 nM iberiotoxin) is “not and no significant effect and did not react”; with LNCaP (setting [6]), “no effect”. Further, the “effect on estradiol-stimulated growth of BPH-1” value is given as “completely reversed” with BPH-1 and “blocked the growth stimulus” in the test with BPH-1 (listed as Iberiotoxin). In addition, the “effect on growth of BPH-1 (words)” value is “not and no significant effect” in the test with BPH-1 (50 nM iberiotoxin); “no effect” in the test with BPH-1 (setting [6]). The “effect on whole cell conductances of PC-3 cells” value in test [3] was “clear inhibitory effect”. Also, the “effect on whole cell conductances of BPH-1 cells” value in test [4] is recorded as “no significant effects”.

These data come from patent publication US20070292528A1, “Kcnma1 as a Therapeutic Target in Cancer Treatment” (priority 2003, published 2007).
